Results as given in patent US9693551B2, “Pesticidal dispersible concentrate formulations” (Valent U.S.A., Corporation, priority 2013, dated 2017).

Legend:
Assay type in all cases: in vivo
[1] = system: Rhizoctonia; assay: Efficacy on corn seed in Ohio, soil inoculated with Rhizoctonia
Description: Corn seeds were treated with 1 fluid ounce per one hundred weight (fl oz/cwt) of the Formulations of Examples 1 and 4 prior to being planted in Ohio. Untreated seeds were planted to assess the disease impact in stand establishment. Besides the control, commercially available and known fungicides were applied to determine the effectiveness of formulations of the present invention.
At planting, the soil was inoculated with a fungus of the genus Rhizoctonia, a common corn plant pathogen that causes rot disease, to assess field performance and seedling protection of the above formulas.
“Plants per acre” was determined to establish stand density. Stand Density of Ohio Corn Plants after Seed Treatment.”

[2] = system: Fusarium; assay: Efficacy on corn seed in Illinois, soil inoculated with Fusarium; details: for Plants per acre 14DAP / Plants per acre 28DAP: Fusarium-inoculated soil; for Plants per acre 14DAP: 14 days after planting; for Plants per acre 28DAP: 28 days after planting; for % disease: number of plants with Fusarium infection
Description: Corn seeds were treated with 1 fluid ounce per one hundred weight (fl oz/cwt) or 65 mls/100 kg seed of the Formulations of Examples 1 and 4 prior to being planted in Illinois. Untreated seeds (“UTC”) were planted to assess the disease impact in stand establishment. Besides the control, commercially available and known fungicides were applied to determine the effectiveness of formulations of the present invention. Maxim® XL (Maxim is a registered trademark of Syngenta) is a fungicide containing 21% fludioxonil and 8.4% mefenoxam in a proprietary formulation. Apron XL® (Apron XL is a registered trademark of Syngenta) is fungicide containing 33.3% of mefenoxam in a proprietary formulation. Metalaxyl was applied in a 30.1% formulation and metconazole was applied in an approximately 40% dispersion with approximately 4% glycerine and other inert ingredients.
At planting, the soil was inoculated with a fungus of the genus Fusarium, a common corn plant pathogen that causes stalk rot disease, to assess field performance and seedling protection of the above formulas.
“Plants per acre” was determined to establish stand density. “% disease” was calculated by observing number of plants with Fusarium infection. The “height (cm) on roots” was determined. Stand Density and % Disease of Illinois Corn Plants after Seed Treatment.”

[3] = system: Corn seeds; assay: Efficacy on corn seeds in Mississippi (emergence and yield)

Compound	Plants per acre 14DAP [1] [plants per acre]	Plants per acre 28DAP [1] [plants per acre]	Height (cm) on roots [2] [cm]	Plants per acre 14DAP [2] [plants per acre]	Plants per acre 28DAP [2] [plants per acre]	% disease [2] [%]	Yield (bu/A) [3] [bu/A]	Yield (kg/hectare) [3] [kg/hectare]	% Emergence 20DAP [3] [%]	% Emergence 35DAP [3] [%]
COCC(=O)N(c1c(C)cccc1C)C(C)C(=O)OC (centres unmarked) [Metalaxyl, metalaxyl]	22400	28700	61.0	25352	26049	18.0	154	9662.3	91.5	83.3
CC1(C)CCC(Cc2ccc(Cl)cc2)C1(O)Cn1cncn1 (centres unmarked) [Metconazole, metconazole]	28875	28700	57.3	28401	29011	37.6	155.5	9756.4	80.8	84.8
